In patent US12110287B2, “Heterocyclic derivatives as Nav1.7 and Nav1.8 blockers” (RaQualia Pharma Inc., priority 2018, dated 2024):

target: Nav1.7 (Homo sapiens, UniProt Q15858); assay: EFS-FRET assay; type: cell-based; set-up: expressed in transfected cells; host or cells: CHO (Chinese hamster ovary) cells; conditions: CHO cells expressing human Nav1.7 channels, read-out: IC50 against Nav1.7
Description: This screen is used to determine the effects of compounds on human Nav1.7 channels, utilizing electrical field stimulation (EFS) system in 96-well plate format on FDSS (Hamamatsu Photonics) platform. The changes of membrane potential are monitored with FRET dye pair, DiSBAC2(3) and PTS18.
CHO (Chinese hamster ovary) cells expressing human Nav1.7 channels are grown in T225 flasks, in a 5% CO2 humidified incubator to about 80% confluence. Media composition consists of HAM/F12 with Glutamax I, 10% FCS, 100 units/mF penicillin and 100 microgram/mF hygromycin.
• Seed each cell lines (1×10^5 cells/well) into 96-well plates prior to experimentation. • Incubate at 37° C. in 5% CO2 for 24 hours. • Wash each well with assay buffer (140 mM NaCl, 4.5 mM KCl, 10 mM D-Glucose, 2 mM CaCl2, 1 mM MgCl2, 10 mM HEPES, pH 7.4 adjusted with NaOH) twice. • Add 1st loading solution containing 10 microM PTS18 and 0.06% Pluronic F-127 in assay buffer. • Incubate the plate at rt in dark for 1 hour. • Remove 1st loading solution and add 2nd loading solution containing 12.5 microM DiSBAC2(3), 1.25 mM Xylene Fast Yellow and 0.0075% Pluronic F-127 in assay buffer. • Place the plate under the dark at rt for 25 minutes. • Add compound solutions into the assay plate. • Set the assay plate in FDSS and place an EFS device on the plate. • Measure EFS-induced fluorescent response by FDSS.
The data are analyzed and reported as normalized ratios of intensities measured at […]. The process of calculating these ratios is performed as follows:
This analysis is performed using a computerized specific program designed for FDSS generated data. Fluorescence ratio values are plotted using XLfit to determine an IC50 value for each compound.

Nav1.7, sequence (Q15858 whole entry): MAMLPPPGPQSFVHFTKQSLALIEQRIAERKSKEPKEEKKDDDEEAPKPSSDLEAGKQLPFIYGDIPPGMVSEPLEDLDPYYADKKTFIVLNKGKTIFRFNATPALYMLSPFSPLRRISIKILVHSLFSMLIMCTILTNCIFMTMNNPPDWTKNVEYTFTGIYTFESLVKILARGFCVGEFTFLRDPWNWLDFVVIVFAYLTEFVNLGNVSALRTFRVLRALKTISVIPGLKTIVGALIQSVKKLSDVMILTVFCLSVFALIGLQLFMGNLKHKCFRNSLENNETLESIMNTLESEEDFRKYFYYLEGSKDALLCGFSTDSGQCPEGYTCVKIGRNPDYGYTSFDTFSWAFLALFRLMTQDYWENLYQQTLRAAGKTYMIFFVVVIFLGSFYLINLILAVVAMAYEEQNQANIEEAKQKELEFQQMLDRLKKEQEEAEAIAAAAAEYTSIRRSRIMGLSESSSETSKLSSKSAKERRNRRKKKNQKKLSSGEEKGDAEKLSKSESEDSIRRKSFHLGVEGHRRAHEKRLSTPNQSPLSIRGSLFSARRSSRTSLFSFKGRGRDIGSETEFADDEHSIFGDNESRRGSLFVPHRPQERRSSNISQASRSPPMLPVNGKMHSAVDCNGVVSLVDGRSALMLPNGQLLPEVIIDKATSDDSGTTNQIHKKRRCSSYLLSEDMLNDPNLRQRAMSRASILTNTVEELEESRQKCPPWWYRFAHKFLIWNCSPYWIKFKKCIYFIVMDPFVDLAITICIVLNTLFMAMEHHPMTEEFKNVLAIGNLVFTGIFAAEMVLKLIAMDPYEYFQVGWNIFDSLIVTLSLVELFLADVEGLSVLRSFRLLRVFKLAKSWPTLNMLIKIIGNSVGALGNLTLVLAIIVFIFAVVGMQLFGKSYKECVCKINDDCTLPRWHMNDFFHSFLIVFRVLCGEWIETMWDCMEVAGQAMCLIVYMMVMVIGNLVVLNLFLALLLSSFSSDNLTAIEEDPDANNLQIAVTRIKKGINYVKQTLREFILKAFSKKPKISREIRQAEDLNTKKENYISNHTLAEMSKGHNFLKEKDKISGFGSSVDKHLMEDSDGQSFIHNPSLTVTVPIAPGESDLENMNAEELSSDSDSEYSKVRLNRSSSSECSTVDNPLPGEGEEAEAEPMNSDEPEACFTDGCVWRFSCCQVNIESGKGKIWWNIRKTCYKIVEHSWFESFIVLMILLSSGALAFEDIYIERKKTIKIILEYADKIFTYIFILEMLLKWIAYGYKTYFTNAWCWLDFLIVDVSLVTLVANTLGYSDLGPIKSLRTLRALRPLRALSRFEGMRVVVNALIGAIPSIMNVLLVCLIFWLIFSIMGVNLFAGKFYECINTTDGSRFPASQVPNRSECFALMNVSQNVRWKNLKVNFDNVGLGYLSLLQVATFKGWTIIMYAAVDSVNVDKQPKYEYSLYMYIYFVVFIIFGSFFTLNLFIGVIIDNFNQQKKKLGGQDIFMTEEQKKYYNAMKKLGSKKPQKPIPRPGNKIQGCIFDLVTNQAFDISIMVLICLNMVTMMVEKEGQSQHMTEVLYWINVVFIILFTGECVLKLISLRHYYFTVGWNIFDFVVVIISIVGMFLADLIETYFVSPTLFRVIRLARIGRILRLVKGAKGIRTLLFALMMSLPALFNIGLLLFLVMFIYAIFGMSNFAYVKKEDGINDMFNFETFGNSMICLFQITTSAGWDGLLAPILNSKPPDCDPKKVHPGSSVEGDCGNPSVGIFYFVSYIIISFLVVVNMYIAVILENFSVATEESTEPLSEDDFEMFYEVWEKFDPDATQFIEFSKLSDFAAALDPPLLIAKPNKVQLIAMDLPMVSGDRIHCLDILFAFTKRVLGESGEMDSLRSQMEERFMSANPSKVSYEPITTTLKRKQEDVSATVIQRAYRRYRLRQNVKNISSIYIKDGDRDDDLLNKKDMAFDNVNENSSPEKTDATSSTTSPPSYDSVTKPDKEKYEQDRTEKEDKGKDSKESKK

IC50, < 500 nM:
CC(=O)Nc1cc(C(=O)N[C@@H]2CCN(c3ncc(C(F)(F)F)cc3Cl)C2)ccn1 [Example 2]
CC(=O)Nc1cc(C(=O)N[C@@H]2CCCN(c3ncc(C(F)(F)F)cc3Cl)C2)ccn1 [Example 5]
CCC(=O)Nc1cc(C(=O)N[C@@H]2CCCN(c3ncc(C(F)(F)F)cc3Cl)C2)ccn1 [Example 6]
CC(=O)Nc1cc(C(=O)NC2CN(c3ncc(C(F)(F)F)cc3Cl)C2)ccn1 [Example 8]
CC(C)C(=O)Nc1cc(C(=O)N[C@@H]2CCN(c3ncc(C(F)(F)F)cc3Cl)C2)ccn1 [Example 10]
CCC(=O)Nc1cc(C(=O)N[C@@H]2CCN(c3ncc(C(F)(F)F)cc3Cl)C2)cc(C)n1 [Example 11]
CCC(=O)Nc1cc(C(=O)N[C@@H]2CCN(c3ccc(C(F)(F)F)cn3)C2)ccn1 [Example 16]
CCC(=O)Nc1nccc(C(=O)N[C@@H]2CCN(c3ncc(C(F)(F)F)cc3Cl)C2)n1 [Example 20]
O=C(N[C@@H]1CCN(c2ncc(C(F)(F)F)cc2Cl)C1)c1ccnc(NC(=O)C2CC2)n1 [Example 21]
CC(C)C(=O)Nc1nccc(C(=O)N[C@@H]2CCN(c3ncc(C(F)(F)F)cc3Cl)C2)n1 [Example 22]
O=C(N[C@@H]1CCN(c2ncc(C(F)(F)F)cc2Cl)C1)c1ccnc(NC(=O)C2CCC2)n1 [Example 23]
CC(=O)Nc1nccc(C(=O)N[C@@H]2CCCN(c3ncc(C(F)(F)F)cc3Cl)C2)n1 [Example 24]
CCC(=O)Nc1nccc(C(=O)N[C@@H]2CCCN(c3ncc(C(F)(F)F)cc3Cl)C2)n1 [Example 25]
O=C(N[C@@H]1CCCN(c2ncc(C(F)(F)F)cc2Cl)C1)c1ccnc(NC(=O)C2CC2)n1 [Example 26]
CC(C)C(=O)Nc1nccc(C(=O)N[C@@H]2CCCN(c3ncc(C(F)(F)F)cc3Cl)C2)n1 [Example 27]
O=C(N[C@@H]1CCCN(c2ncc(C(F)(F)F)cc2Cl)C1)c1ccnc(NC(=O)C2CCC2)n1 [Example 28]
COc1cc(C(F)(F)F)cnc1N1CC[C@@H](NC(=O)c2ccnc(NC(C)=O)c2)C1 [Example 37]
CCC(=O)Nc1cc(C(=O)N[C@@H]2CCN(c3ncc(C(F)(F)F)cc3OC)C2)ccn1 [Example 38]
COc1cc(C(F)(F)F)cnc1N1CC[C@@H](NC(=O)c2cc(C)nc(NC(C)=O)c2)C1 [Example 39]
CC(=O)Nc1cc(C(=O)NC2CCC(C)N(c3ncc(C(F)(F)F)cc3Cl)C2)ccn1 (centres unmarked) [Example 41]
CCC(=O)Nc1cc(C(=O)NC2CCC(C)N(c3ncc(C(F)(F)F)cc3Cl)C2)ccn1 (centres unmarked) [Example 42]
CC(=O)Nc1cc(C(=O)N[C@@H]2CCN(c3ncc(C(F)(F)F)cc3C)C2)ccn1 [Example 46]
Cc1cc(C(F)(F)F)cnc1N1CC[C@@H](NC(=O)c2ccnc(NC(=O)C3CC3)c2)C1 [Example 47]
CCC(=O)Nc1cc(C(=O)N[C@@H]2CCN(c3ncc(C(F)(F)F)cc3Cl)C2)ccn1 [Example 48]
CC(=O)Nc1cc(C(=O)N[C@@H]2CCN(c3ncc(C(F)(F)F)cc3Cl)C2)cc(C)n1 [Example 49]
CC(C)C(=O)Nc1cc(C(=O)NC2CN(c3ncc(C(F)(F)F)cc3Cl)C2)ccn1 [Example 50]
CC(=O)Nc1cc(C(=O)NC2CN(c3ncc(C(F)(F)F)cc3Cl)C2)cc(C)n1 [Example 51]
Cc1cc(C(=O)NC2CN(c3ncc(C(F)(F)F)cc3Cl)C2)cc(NC(=O)C(C)C)n1 [Example 52]
Cc1cc(C(=O)NC2CN(c3ncc(C(F)(F)F)cc3Cl)C2)nc(NC(=O)C2CC2)n1 [Example 53]
O=C(N[C@@H]1CCCN(c2ccc(C(F)(F)F)cc2Cl)C1)c1ccnc(NC(=O)C2CC2)c1 [Example 55]
Cc1cc(C(=O)N[C@@H]2CCCN(c3ccc(C(F)(F)F)cc3Cl)C2)cc(NC(=O)C2CC2)n1 [Example 56]
CC(C)C(=O)Nc1cc(C(=O)N[C@@H]2CCCN(c3ccc(C(F)(F)F)cc3Cl)C2)ccn1 [Example 57]
Cc1cc(C(=O)N[C@@H]2CCCN(c3ccc(C(F)(F)F)cc3Cl)C2)cc(NC(=O)C(C)C)n1 [Example 58]
O=C(N[C@@H]1CCCN(c2ncc(C(F)(F)F)cc2Br)C1)c1ccnc(NC(=O)C2CC2)c1 [Example 59]
Cc1cc(C(=O)N[C@@H]2CCCN(c3ncc(C(F)(F)F)cc3Br)C2)cc(NC(=O)C2CC2)n1 [Example 60]
Cc1cc(C(=O)N[C@@H]2CCCN(c3ncc(C(F)(F)F)cc3C)C2)cc(NC(=O)C(C)C)n1 [Example 73]
O=C(N[C@@H]1CCN(c2ccc(C(F)(F)F)cc2Cl)C1)c1ccnc(NC(=O)C2CC2)c1 [Example 77]
Cc1cc(C(=O)N[C@@H]2CCN(c3ncc(C(F)(F)F)cc3Cl)C2)cc(NC(=O)C2CC2)n1 [Example 78]
CC(C)C(=O)Nc1cc(C(=O)N[C@@H]2CCN(c3ccc(C(F)(F)F)cc3Cl)C2)ccn1 [Example 79]
Cc1cc(C(=O)N[C@@H]2CCN(c3ccc(C(F)(F)F)cc3Cl)C2)cc(NC(=O)C(C)C)n1 [Example 80]
COc1cc(C(F)(F)F)cnc1N1CC[C@@H](NC(=O)c2ccnc(NC(=O)C3CC3)c2)C1 [Example 81]
COc1cc(C(F)(F)F)cnc1N1CC[C@@H](NC(=O)c2cc(C)nc(NC(=O)C3CC3)c2)C1 [Example 82]
COc1cc(C(F)(F)F)cnc1N1CC[C@@H](NC(=O)c2ccnc(NC(=O)C(C)C)c2)C1 [Example 83]
COc1cc(C(F)(F)F)cnc1N1CC[C@@H](NC(=O)c2cc(C)nc(NC(=O)C(C)C)c2)C1 [Example 84]
CCCC(=O)Nc1cc(C(=O)N[C@@H]2CCN(c3ncc(C(F)(F)F)cc3OC)C2)ccn1 [Example 88]
O=C(N[C@@H]1CCCN(c2ncc(OCC(F)(F)F)cc2Cl)C1)c1ccnc(NC(=O)C2CC2)c1 [Example 92]
O=C(N[C@@H]1CCN(c2ncc(OCC(F)(F)F)cc2Cl)C1)c1ccnc(NC(=O)C2CC2)c1 [Example 93]
CCC(=O)Nc1cc(C(=O)N[C@@H]2CCCN(c3ncc(OCC(F)(F)F)cc3Cl)C2)ccn1 [Example 95]
CCC(=O)Nc1cc(C(=O)N[C@@H]2CCN(c3ncc(OCC(F)(F)F)cc3Cl)C2)ccn1 [Example 96]
O=C(N[C@@H]1CCCN(c2ncc(OCc3ccc(F)cc3)cc2Cl)C1)c1ccnc(NC(=O)C2CC2)c1 [Example 99]
